{
  "source": "ChEMBL document CHEMBL5113514",
  "about": "(J Med Chem, 2022)",
  "key": {"Mus musculus [1]": {"system": "Mus musculus", "assay": "Antiseizure activity against electrical stimulus induced seizure in ip dosed CD-1 mouse model assessed as reduction in hindlimb tonic extension pretreated for 1 hr by maximal electroshock seizure test", "assay_type": "functional, organism-based"}, "[2]": {"target": "Synaptic vesicle glycoprotein 2A (Mus musculus, UniProt Q9JIS5)", "sequence (Q9JIS5 whole entry)": "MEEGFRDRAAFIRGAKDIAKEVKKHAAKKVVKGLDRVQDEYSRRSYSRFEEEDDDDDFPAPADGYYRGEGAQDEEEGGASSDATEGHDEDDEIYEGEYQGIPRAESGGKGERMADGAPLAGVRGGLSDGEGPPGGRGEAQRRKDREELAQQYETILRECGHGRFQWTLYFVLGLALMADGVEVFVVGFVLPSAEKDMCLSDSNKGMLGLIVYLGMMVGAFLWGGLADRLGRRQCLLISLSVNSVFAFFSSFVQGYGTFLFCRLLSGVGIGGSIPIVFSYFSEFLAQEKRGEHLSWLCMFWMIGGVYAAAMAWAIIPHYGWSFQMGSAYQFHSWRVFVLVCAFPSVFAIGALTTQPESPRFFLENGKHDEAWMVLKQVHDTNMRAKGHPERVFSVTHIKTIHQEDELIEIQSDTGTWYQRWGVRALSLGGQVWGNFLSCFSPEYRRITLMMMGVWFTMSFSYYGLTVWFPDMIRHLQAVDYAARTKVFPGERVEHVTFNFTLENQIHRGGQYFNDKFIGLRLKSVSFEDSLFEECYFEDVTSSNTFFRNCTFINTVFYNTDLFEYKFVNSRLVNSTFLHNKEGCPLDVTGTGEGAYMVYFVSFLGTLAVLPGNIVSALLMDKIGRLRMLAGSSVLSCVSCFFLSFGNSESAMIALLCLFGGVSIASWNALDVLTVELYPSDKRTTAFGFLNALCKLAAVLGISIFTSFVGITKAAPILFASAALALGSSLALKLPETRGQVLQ", "assay": "Binding affinity to mouse SV2A in presence of levetiracetam by radioligand binding assay"}, "Mus musculus [3]": {"system": "Mus musculus", "assay": "Antiseizure activity against ScPTZ-induced seizure in ip dosed CD-1 mouse model assessed as clonic seizures pretreated for 1 hr and measured after 30 mins by subcutaneous pentylenetetrazole test", "assay_type": "functional, organism-based"}, "Mus musculus [4]": {"system": "Mus musculus", "assay": "Anti-seizure activity against electrical stimulus induced seizure in ip dosed CD-1 mouse model assessed as normal behavior within 10 seconds after stimulation at 6 Hz and 32 mA for 3 secs pretreated for […] by psychomotor seizure test", "assay_type": "functional, organism-based"}, "Mus musculus [5]": {"system": "Mus musculus", "assay": "Antiseizure activity against ScPTZ-induced seizure in ip dosed CD-1 mouse model assessed as clonic seizures pretreated for […] and measured after 30 mins by subcutaneous pentylenetetrazole test", "assay_type": "functional, organism-based"}, "[6]": {"target": "Voltage-dependent T-type calcium channel subunit alpha-1H (Homo sapiens) (UniProt O95180)", "sequence (O95180 whole entry)": "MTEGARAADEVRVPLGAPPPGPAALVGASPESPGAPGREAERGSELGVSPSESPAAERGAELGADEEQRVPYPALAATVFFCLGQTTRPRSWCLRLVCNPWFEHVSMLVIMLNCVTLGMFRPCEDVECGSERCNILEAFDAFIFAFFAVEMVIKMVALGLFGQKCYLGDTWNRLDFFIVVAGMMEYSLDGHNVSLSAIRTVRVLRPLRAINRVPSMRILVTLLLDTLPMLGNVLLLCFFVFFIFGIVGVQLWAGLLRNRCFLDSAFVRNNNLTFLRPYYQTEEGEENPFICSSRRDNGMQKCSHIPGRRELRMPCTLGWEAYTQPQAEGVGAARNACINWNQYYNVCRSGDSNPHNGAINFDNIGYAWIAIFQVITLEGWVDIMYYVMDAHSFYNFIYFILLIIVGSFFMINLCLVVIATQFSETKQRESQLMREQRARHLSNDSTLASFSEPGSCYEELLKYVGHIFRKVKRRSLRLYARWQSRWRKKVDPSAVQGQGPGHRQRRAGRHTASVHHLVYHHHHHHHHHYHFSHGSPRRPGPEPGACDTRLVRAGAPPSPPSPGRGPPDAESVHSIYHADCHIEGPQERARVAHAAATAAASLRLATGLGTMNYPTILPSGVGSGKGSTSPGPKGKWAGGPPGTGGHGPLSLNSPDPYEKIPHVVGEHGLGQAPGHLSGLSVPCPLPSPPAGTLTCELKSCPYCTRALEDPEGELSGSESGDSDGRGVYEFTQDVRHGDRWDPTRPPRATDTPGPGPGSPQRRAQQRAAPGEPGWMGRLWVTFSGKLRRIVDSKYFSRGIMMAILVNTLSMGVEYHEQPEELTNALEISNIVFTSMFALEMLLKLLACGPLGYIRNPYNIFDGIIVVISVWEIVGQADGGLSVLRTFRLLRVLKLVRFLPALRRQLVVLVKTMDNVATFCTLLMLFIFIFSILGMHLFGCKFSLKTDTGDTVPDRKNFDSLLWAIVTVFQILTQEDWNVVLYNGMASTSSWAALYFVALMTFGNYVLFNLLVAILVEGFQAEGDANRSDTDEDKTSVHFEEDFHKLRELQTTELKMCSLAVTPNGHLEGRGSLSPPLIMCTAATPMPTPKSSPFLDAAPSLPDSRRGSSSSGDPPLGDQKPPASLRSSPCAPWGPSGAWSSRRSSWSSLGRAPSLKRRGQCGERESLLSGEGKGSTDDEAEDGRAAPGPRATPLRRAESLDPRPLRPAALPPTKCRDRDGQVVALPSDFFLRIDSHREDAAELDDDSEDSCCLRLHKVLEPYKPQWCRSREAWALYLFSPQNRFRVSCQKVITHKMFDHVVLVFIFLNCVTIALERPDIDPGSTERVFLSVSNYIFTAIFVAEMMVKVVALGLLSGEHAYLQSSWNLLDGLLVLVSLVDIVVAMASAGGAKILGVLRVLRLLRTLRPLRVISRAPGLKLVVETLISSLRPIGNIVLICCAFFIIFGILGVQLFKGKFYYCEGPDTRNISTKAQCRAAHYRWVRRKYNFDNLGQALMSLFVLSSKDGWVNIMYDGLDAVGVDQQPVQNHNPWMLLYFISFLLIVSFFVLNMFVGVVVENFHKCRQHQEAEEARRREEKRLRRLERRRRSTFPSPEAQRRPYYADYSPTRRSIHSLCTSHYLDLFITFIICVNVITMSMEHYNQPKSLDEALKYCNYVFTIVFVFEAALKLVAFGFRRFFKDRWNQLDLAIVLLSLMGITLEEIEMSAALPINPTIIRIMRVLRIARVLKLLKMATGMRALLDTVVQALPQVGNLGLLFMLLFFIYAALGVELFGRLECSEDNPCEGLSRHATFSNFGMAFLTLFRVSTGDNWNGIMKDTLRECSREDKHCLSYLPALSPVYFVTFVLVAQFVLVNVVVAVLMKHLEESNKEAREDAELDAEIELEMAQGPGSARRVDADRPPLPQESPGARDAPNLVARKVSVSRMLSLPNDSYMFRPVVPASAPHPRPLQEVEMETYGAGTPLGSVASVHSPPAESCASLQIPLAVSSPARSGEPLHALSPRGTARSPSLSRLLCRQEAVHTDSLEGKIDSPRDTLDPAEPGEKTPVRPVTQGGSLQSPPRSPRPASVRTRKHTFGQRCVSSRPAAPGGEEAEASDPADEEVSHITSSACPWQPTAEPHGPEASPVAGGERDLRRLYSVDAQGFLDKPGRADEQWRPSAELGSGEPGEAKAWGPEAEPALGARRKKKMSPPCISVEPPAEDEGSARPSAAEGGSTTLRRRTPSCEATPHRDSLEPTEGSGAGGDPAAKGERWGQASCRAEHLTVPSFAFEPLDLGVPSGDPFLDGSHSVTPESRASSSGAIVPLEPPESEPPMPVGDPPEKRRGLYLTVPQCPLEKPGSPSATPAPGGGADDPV", "assay": "Binding affinity to human Cav3.2 at 100 uM by Qpatch electrophysiological assay"}, "Mus musculus [7]": {"system": "Mus musculus", "assay": "Antiseizure activity against electrical stimulus induced seizure in ip dosed CD-1 mouse model assessed as normal behavior within 10 seconds after stimulation at 6 Hz and 32 mA for 3 secs pretreated for 0.5 hr by psychomotor seizure test", "assay_type": "functional, organism-based"}, "Homo sapiens": {"species_on_record": "Homo sapiens", "assay": "Binding affinity to TTX-sensitive sodium channel (unknown origin) at 100 uM"}, "Mus musculus [8]": {"species_on_record": "Mus musculus", "assay": "animal or person", "conditions": "CD-1, 0.5 h"}, "Mus musculus [9]": {"system": "Mus musculus", "assay": "Antiseizure activity against ScPTZ-induced seizure in ip dosed CD-1 mouse model assessed as clonic seizures pretreated for 0.5 hrs and measured after 30 mins by subcutaneous pentylenetetrazole test", "assay_type": "functional, organism-based"}},
  "note": "Activity calls are given as the source filed them. The calls are words filed in the database; no cut-off is given here.",
  "data": [
    {"smiles": "CC[C@@H](C(N)=O)N1CCCC1=O", "values": [
      {"measurement": "EC50", "setting": "Mus musculus [1]", "result": "> 500", "unit": "mg/kg"}
    ]},
    {"smiles": "C[C@@H](C(=O)NCc1ccccc1)N1C(=O)CCC1=O", "values": [
      {"measurement": "Ki", "setting": "[2]", "result": "> 250", "unit": "µM"}
    ]},
    {"smiles": "C[C@H](C(=O)NCc1ccccc1)N1C(=O)CCC1=O", "values": [
      {"measurement": "Ki", "setting": "[2]", "result": "> 250", "unit": "µM"}
    ]},
    {"smiles": "C=C(C)[C@@H]1CCC(C)=C[C@H]1c1c(O)cc(CCCCC)cc1O", "note": "[CANNABIDIOL]", "values": [
      {"measurement": "EC50", "setting": "Mus musculus [1]", "result": 80, "unit": "mg/kg"},
      {"measurement": "EC50", "setting": "Mus musculus [3]", "result": 120, "unit": "mg/kg"}
    ]},
    {"smiles": "CCC1(C)CC(=O)NC1=O", "note": "(stereo not drawn) [ETHOSUXIMIDE]", "values": [
      {"measurement": "EC50", "setting": "Mus musculus [4]", "result": "> 200", "unit": "mg/kg"},
      {"measurement": "EC50", "setting": "Mus musculus [5]", "result": 140.4, "unit": "mg/kg"},
      {"measurement": "Activity", "setting": "[6]", "result": "Active"}
    ]},
    {"smiles": "COC[C@@H](NC(C)=O)C(=O)NCc1ccccc1", "note": "[LACOSAMIDE]", "values": [
      {"measurement": "EC50", "setting": "Mus musculus [7]", "result": 5.3, "unit": "mg/kg"},
      {"measurement": "Activity", "setting": "Homo sapiens", "result": "Active"},
      {"measurement": "ED50", "setting": "Mus musculus [8]", "result": 92, "unit": "mg/kg"}
    ]},
    {"smiles": "CCCC(CCC)C(=O)O", "note": "[VALPROIC ACID]", "values": [
      {"measurement": "EC50", "setting": "Mus musculus [7]", "result": 130.6, "unit": "mg/kg"},
      {"measurement": "EC50", "setting": "Mus musculus [9]", "result": 239.4, "unit": "mg/kg"}
    ]}
  ]
}
